The text below walks through data of US7459277B2, “Mammalian T1R3 sweet taste receptors” (The Regents of the University of California, priority 2003, dated 2008).

The test system of experiment [1] is rodents. As to conditions: 100 times higher concentrations than sweet to humans; cited from earlier work.
The test system of experiment [2] is T1R2 KO mice expressing a human T1R2 gene. The experiment can be described thus: Behavioral taste responses of mice expressing a human T1R2 transgene. The format is in vivo, mouse. As to conditions: humanized T1R2 mice (T1R2 KO + hT1R2 transgene); monellin ~10 uM, thaumatin ~5 uM, aspartame 10 mM, glycyrrhizic acid 500 uM, neohesperidin dihydrochalcone 400 uM.
The subject of experiment [3] is humans. The following applies: sub-millimolar concentrations; cited from earlier work.
Experiment [4] deals with T1, human T1R2 and human T1R3 (Homo sapiens, UniProt Q7RTX0+Q8TE23).
T1 construct: expressed in transfected cells; host or cells: cells (HEK inferred from the preceding sentence and b309)
T1 sequence (Q8TE23 20-839): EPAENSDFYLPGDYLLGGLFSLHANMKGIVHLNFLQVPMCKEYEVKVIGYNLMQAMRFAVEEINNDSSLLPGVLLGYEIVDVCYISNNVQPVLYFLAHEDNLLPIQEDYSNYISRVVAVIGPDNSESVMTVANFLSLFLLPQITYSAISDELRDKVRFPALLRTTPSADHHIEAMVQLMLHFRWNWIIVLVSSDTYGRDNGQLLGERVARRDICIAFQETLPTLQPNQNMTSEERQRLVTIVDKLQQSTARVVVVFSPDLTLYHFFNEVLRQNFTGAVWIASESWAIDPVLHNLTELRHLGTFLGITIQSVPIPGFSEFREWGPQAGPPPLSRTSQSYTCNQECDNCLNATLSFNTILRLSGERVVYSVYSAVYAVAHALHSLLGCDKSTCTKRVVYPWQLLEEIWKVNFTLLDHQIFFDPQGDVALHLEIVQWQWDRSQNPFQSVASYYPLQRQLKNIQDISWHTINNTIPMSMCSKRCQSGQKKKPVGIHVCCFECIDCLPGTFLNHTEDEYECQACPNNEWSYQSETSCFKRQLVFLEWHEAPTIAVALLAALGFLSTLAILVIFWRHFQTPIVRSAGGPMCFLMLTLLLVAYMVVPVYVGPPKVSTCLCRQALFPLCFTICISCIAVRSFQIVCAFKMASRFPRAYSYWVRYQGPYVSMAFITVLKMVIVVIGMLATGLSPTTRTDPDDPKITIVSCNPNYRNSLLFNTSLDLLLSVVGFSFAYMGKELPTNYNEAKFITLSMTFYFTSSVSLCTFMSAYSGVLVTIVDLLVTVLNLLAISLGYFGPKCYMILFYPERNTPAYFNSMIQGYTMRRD
T1 sequence (Q7RTX0 21-852): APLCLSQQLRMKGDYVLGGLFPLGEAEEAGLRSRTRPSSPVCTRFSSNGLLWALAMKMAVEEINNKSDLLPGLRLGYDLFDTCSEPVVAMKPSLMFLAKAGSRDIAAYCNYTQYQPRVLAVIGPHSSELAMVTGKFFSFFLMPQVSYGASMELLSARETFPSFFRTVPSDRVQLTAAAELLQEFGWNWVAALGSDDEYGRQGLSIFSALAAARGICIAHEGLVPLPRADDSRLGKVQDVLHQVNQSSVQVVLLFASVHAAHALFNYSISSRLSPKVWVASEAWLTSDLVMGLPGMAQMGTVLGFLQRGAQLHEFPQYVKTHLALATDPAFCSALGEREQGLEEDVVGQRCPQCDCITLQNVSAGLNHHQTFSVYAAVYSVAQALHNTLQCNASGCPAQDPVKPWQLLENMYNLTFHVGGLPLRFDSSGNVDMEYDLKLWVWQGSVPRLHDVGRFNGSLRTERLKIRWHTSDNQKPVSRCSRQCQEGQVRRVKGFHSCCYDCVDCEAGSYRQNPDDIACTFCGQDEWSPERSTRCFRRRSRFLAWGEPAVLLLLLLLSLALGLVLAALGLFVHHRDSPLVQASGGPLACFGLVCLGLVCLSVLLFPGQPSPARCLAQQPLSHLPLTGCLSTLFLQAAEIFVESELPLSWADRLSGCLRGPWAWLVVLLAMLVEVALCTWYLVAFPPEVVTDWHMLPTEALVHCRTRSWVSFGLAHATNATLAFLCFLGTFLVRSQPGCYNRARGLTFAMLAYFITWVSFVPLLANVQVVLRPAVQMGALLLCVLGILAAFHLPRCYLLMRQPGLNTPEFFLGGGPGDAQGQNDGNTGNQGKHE
The experiment can be described thus: Cells transfected with human T1R2 and human T1R3. It counts as cell-based. The protocol:
(§1) We generated mice that were homozygous for the T1R2 KO allele, but instead expressed a human T1R2 transgene in the native “T1R2-cells”. A 12 kb genomic clone containing the T1R2 regulatory sequences was fused to a hT1R2 full length cDNA and introduced into T1R2 KO mice. Multiple independent lines were assayed for their selectivity and sensitivity to sweet tastants. To examine expression of hT1R2, we performed two-color fluorescent in situ hybridization experiments in transgenic animals carrying the wild type mT1R2 allele. […] Taken together, these experiments validate T1Rs as key determinants of differences in sweet taste selectivity and specificity between rodents and humans, and further substantiate T1R2+3, and T1R2-expressing cells, as an principal mediator of sweet taste in vivo. Finally, we propose that polymorphisms in both T1R2 and T1R3 are important determinants of human individual sweet taste preferences.
(§2) Modified HEK-293 cells (PEAK^rapid cells; Edge BioSystems, Md.) were grown, transfected with T1Rs and promiscuous G-proteins and assayed for functional responses to tastants by Ca-imaging essentially as described previously (Nelson, G. et al., Cell, 106, 381-390 (2001)). […] Acquisition and analysis of fluorescence images used TILL-Vision software.

Experiment [5] deals with T2, human T1R2 and mouse T1R3 GPCRs (UniProt Q8TE23+Q925D8).
T2 construct: expressed in transfected cells; host or cells: HEK cells
T2 sequence (Q8TE23 20-839): T1 sequence (Q8TE23 20-839)
T2 sequence (Q925D8 21-858): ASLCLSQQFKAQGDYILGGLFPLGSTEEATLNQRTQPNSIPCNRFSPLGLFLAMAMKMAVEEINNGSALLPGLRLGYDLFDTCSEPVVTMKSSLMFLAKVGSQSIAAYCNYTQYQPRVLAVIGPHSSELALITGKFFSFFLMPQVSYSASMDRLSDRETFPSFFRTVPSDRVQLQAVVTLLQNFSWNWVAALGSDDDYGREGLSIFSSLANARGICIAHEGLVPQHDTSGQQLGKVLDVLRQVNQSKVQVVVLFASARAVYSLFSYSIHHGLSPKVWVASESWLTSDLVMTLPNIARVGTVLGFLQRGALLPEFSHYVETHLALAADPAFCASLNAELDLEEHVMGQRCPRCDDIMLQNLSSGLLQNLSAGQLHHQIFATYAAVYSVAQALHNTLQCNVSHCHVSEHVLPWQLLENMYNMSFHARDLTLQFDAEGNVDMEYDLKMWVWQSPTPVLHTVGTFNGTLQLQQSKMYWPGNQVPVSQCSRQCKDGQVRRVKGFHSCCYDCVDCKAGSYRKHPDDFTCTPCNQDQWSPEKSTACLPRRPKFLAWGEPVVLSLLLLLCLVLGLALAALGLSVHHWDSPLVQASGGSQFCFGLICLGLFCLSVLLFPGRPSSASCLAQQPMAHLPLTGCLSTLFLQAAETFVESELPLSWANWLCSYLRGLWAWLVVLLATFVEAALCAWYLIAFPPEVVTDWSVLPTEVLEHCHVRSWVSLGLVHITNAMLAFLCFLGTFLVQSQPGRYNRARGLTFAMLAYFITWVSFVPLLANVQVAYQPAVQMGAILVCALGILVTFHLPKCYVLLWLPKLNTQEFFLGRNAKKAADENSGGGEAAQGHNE
The experiment can be described thus: HEK cells transfected with human T1R2 and mouse T1R3. It counts as cell-based. Here is the method:
as §1, §2

Take `COc1ccc(CCC(=O)c2c(O)cc(O[C@@H]3O[C@H](CO)[C@@H](O)[C@H](O)[C@H]3O[C@@H]3O[C@@H](C)[C@H](O)[C@@H](O)[C@H]3O)cc2O)cc1O` [neohesperidin dihydrochalcone]: the preference in rodents entry in experiment [1] was “no preference”. Also, the “behavioral response to human sweet tastants” value in experiment [2] was “still do not respond”. In addition, the “sweet taste to humans” value in experiment [3] is on record as “taste sweet”. Further, the cell response result is reported as “robustly respond” in experiment [4] and “do not respond” in experiment [5].
